Assay [1] is described as follows: IVGTT duration of action assay (single SC injection before glucose). The format is in vivo, rat. As to conditions: compared with 0601GIP3794 (794), dosed at −120 min.
Protocol: To determine a duration of action using the IVGTT assay, the sample was injected SC as a single injection at one time point indicated (e.g., t=−240, −120, −60 or −30) prior to administration of glucose. IV glucose was given at t=0.
Assay [2] has as its target T1, human GIP receptor (Homo sapiens, UniProt P48546).
T1 construct: expressed in transfected cells; host or cells: HEK293 (HEK-GIPR), membranes
T1 sequence (P48546 22-466): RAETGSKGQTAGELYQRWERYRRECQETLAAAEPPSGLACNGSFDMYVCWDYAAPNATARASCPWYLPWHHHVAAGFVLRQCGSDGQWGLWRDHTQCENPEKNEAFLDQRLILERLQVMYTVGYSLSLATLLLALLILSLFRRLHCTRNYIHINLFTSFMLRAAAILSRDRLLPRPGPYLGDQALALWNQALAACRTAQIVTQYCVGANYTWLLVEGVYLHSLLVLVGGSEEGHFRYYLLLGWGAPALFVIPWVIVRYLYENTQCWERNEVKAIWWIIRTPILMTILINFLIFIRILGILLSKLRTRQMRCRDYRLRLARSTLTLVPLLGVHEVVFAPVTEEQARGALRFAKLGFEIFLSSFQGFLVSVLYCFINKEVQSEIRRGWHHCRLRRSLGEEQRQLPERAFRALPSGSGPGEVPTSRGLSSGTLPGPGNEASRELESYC
In words: biochemical. The format is binding.

The format of assay [3] is in vivo, NIH/Swiss mice. The settings on record: 30 nmol/kg.
Protocol: (§1) In FIG. 3A, bars represent mean±sd, n=6-10. […] Gavage (1.5 g/kg) was given at t=0, Sample was taken at t=30 min. […] In FIG. 3B, points represent mean±sem, n=8-15.
Peptide was injected IP at t=−5 minutes into 4-hour fasted NIH/Swiss female mice. […] In FIG. 17 points represent mean+/−sem. […] Samples were taken at t=60, t=120 and t=180.
The format of assay [4] is in vivo, NIH/Swiss mice. As to conditions: 80 nmol/kg, AUC240.
Protocol: as §1
Points represent mean±sem.
The mark [5] stands for this setting: read-out: (% Inh 10 nm, GIP-LF Assay).
The mark [6] stands for this setting: read-out: GIP RBA (% Inh 10 nM).

“And” between values parts separate entries of the source, which are not always exact repeats. Equal values may be shown once. Read-outs that look alike come from different tables or passages of the source.

For `CC[C@H](C)[C@H](NC(=O)[C@H](CCCCN)NC(=O)[C@H](CC(=O)O)NC(=O)[C@H](CC(C)C)NC(=O)[C@H](C)NC(=O)[C@@H](NC(=O)[C@H](CO)NC(=O)[C@H](Cc1ccc(O)cc1)NC(=O)[C@H](CC(=O)O)NC(=O)[C@H](CO)NC(=O)[C@@H](NC(=O)[C@H](Cc1ccccc1)NC(=O)[C@@H](NC(=O)CNC(=O)[C@H](CCC(=O)O)NC(=O)[C@@H](C)NC(=O)[C@H](Cc1ccc(O)cc1)NC(=O)[C@@H](N)CC(C)C)[C@@H](C)O)[C@@H](C)CC)[C@@H](C)CC)C(=O)N[C@@H](C)C(=O)N[C@@H](CCC(N)=O)C(=O)N[C@@H](CCC(N)=O)C(=O)N[C@@H](CCC(=O)O)C(=O)N[C@@H](Cc1ccccc1)C(=O)N[C@H](C(=O)N[C@@H](CC(N)=O)C(=O)N[C@@H](Cc1c[nH]c2ccccc12)C(=O)N[C@@H](CC(C)C)C(=O)N[C@@H](CC(C)C)C(=O)N[C@@H](C)C(=O)N[C@@H](CCC(N)=O)C(=O)N[C@@H](CCCCN)C(=O)N1CCC[C@H]1C(=O)N[C@@H](CCCCN)C(=O)N[C@@H](CCCCN)C(=O)N[C@H](C(=O)N[C@@H](CCCNC(=N)N)C(=O)N[C@@H](Cc1ccc(O)cc1)C(=O)N[C@@H](CO)C(N)=O)[C@@H](C)CC)C(C)C` [0601GIP4802], in assay [1], the “Duration In The Rat IVGTT Assay” value was <794 @ −120 min. For the same molecule, the inhibition at 0.01 µM in assay [2] (setting [5]) and in assay [2] (setting [6]) was 87.3% throughout. Also, the “OGTT/GL (%)” value in assay [3] was −28, %.

Turning to `CC[C@H](C)[C@H](NC(=O)[C@H](CO)NC(=O)[C@H](Cc1ccc(O)cc1)NC(=O)[C@H](CC(=O)O)NC(=O)[C@H](CO)NC(=O)[C@@H](NC(=O)[C@H](Cc1ccccc1)NC(=O)[C@@H](NC(=O)CNC(=O)[C@H](CCC(=O)O)NC(=O)[C@@H](C)NC(=O)[C@@H](N)Cc1ccc(O)cc1)[C@@H](C)O)[C@@H](C)CC)C(=O)N[C@@H](C)C(=O)N[C@@H](CC(C)C)C(=O)N[C@@H](CC(=O)O)C(=O)N[C@@H](CCCCN)C(=O)N[C@H](C(=O)N[C@@H](Cc1c[nH]cn1)C(=O)N[C@@H](CCC(N)=O)C(=O)N[C@@H](CCC(N)=O)C(=O)N[C@@H](CC(=O)O)C(=O)N[C@@H](Cc1ccccc1)C(=O)N[C@H](C(=O)N[C@@H](CC(N)=O)C(=O)N[C@@H](Cc1c[nH]c2ccccc12)C(=O)N[C@@H](CC(C)C)C(=O)N[C@@H](CC(C)C)C(=O)N[C@@H](C)C(=O)N[C@@H](CCC(N)=O)C(=O)N[C@@H](CCCCN)C(=O)N1CCC[C@H]1C(=O)N[C@@H](CCCCN)C(=O)N[C@@H](CCCCN)C(=O)N[C@H](C(=O)N[C@@H](CCCNC(=N)N)C(=O)N[C@@H](Cc1ccc(O)cc1)C(=O)N[C@@H](CO)C(N)=O)[C@@H](C)CC)C(C)C)[C@@H](C)CC` [0601GIP4807], in assay [1], the “Duration In The Rat IVGTT Assay” value is on record as <794 @ −120 min. Further, the inhibition at 0.01 µM in assay [2] (setting [5]) and in assay [2] (setting [6]) was 96.1% each time. Moreover, in assay [3], the “OGTT/GL (%)” value was −27, % and −27, 30%.

In the case of `CC[C@H](C)[C@H](NC(=O)[C@H](CO)NC(=O)[C@H](Cc1ccc(O)cc1)NC(=O)[C@H](CC(=O)O)NC(=O)[C@H](CO)NC(=O)[C@@H](NC(=O)[C@H](Cc1ccccc1)NC(=O)[C@@H](NC(=O)CNC(=O)[C@H](CCC(=O)O)NC(=O)[C@@H](C)NC(=O)[C@@H](N)Cc1ccc(O)cc1)[C@@H](C)O)[C@@H](C)CC)C(=O)N[C@@H](C)C(=O)N[C@@H](CCSC)C(=O)N[C@@H](CC(=O)O)C(=O)N[C@@H](CCCCN)C(=O)N[C@H](C(=O)N[C@@H](Cc1c[nH]cn1)C(=O)N[C@@H](CCC(N)=O)C(=O)N[C@@H](CCC(N)=O)C(=O)N[C@@H](CC(=O)O)C(=O)N[C@@H](Cc1ccccc1)C(=O)N[C@H](C(=O)N[C@@H](CC(N)=O)C(=O)N[C@@H](Cc1c[nH]c2ccccc12)C(=O)N[C@@H](CC(C)C)C(=O)N[C@@H](CC(C)C)C(=O)N[C@@H](C)C(=O)N[C@@H](CCC(N)=O)C(=O)N[C@@H](CCCCN)C(=O)N1CCC[C@H]1C(=O)N[C@@H](CCCCN)C(=O)N[C@@H](CCC(N)=O)C(=O)N[C@H](C(=O)N[C@@H](CCCNC(=N)N)C(=O)N[C@@H](Cc1ccc(O)cc1)C(=O)N[C@@H](CO)C(N)=O)[C@@H](C)CC)C(C)C)[C@@H](C)CC` [Compound 0601GIP4854], the “Duration In The Rat IVGTT Assay” value in assay [1] is <794@ −120 min. In assay [2] (setting [5]), the inhibition at 0.01 µM was 93.5%. Further, in assay [3], the “OGTT/GL (%)” value is recorded as −14, %.

As to `CC[C@H](C)[C@H](NC(=O)[C@H](CO)NC(=O)[C@H](Cc1ccc(O)cc1)NC(=O)[C@H](CC(=O)O)NC(=O)[C@H](CO)NC(=O)[C@@H](NC(=O)[C@H](Cc1ccccc1)NC(=O)[C@@H](NC(=O)CNC(=O)[C@H](CCC(=O)O)NC(=O)[C@@H](C)NC(=O)[C@@H](N)Cc1ccc(O)cc1)[C@@H](C)O)[C@@H](C)CC)C(=O)N[C@@H](C)C(=O)N[C@@H](CCSC)C(=O)N[C@@H](CC(=O)O)C(=O)N[C@@H](CCCCN)C(=O)N[C@H](C(=O)N[C@@H](Cc1c[nH]cn1)C(=O)N[C@@H](CCC(N)=O)C(=O)N[C@@H](CCC(N)=O)C(=O)N[C@@H](CC(=O)O)C(=O)N[C@@H](Cc1ccccc1)C(=O)N[C@H](C(=O)N[C@@H](CC(N)=O)C(=O)N[C@@H](Cc1c[nH]c2ccccc12)C(=O)N[C@@H](CC(C)C)C(=O)N[C@@H](CC(C)C)C(=O)N[C@@H](C)C(=O)N[C@@H](CCC(N)=O)C(=O)N[C@@H](CCCCN)C(=O)N1CCC[C@H]1C(=O)N[C@@H](C)C(=O)N[C@@H](CCCCN)C(=O)N[C@H](C(=O)N[C@@H](CCCNC(=N)N)C(=O)N[C@@H](Cc1ccc(O)cc1)C(=O)N[C@@H](CO)C(N)=O)[C@@H](C)CC)C(C)C)[C@@H](C)CC` [Compound 0601GIP4815], the “Duration In The Rat IVGTT Assay” value in assay [1] is recorded as <794@ −120 min. The inhibition at 0.01 µM in assay [2] (setting [5]) and in assay [2] (setting [6]) was 89% in each case. For the same molecule, the “OGTT/GL (%)” value in assay [3] was −23, %.

As for `CC[C@H](C)[C@H](NC(=O)[C@H](CO)NC(=O)[C@H](Cc1ccc(O)cc1)NC(=O)[C@H](CC(=O)O)NC(=O)[C@H](CO)NC(=O)[C@@H](NC(=O)[C@H](Cc1ccccc1)NC(=O)[C@@H](NC(=O)CNC(=O)[C@H](CCC(=O)O)NC(=O)[C@@H](C)NC(=O)[C@@H](N)Cc1ccc(O)cc1)[C@@H](C)O)[C@@H](C)CC)C(=O)N[C@@H](C)C(=O)N[C@@H](CCSC)C(=O)N[C@@H](CC(=O)O)C(=O)N[C@@H](CCCCN)C(=O)N[C@H](C(=O)N[C@@H](Cc1c[nH]cn1)C(=O)N[C@@H](CCC(N)=O)C(=O)N[C@@H](CCC(N)=O)C(=O)N[C@@H](CC(=O)O)C(=O)N[C@@H](Cc1ccccc1)C(=O)N[C@H](C(=O)N[C@@H](CC(N)=O)C(=O)N[C@@H](Cc1c[nH]c2ccccc12)C(=O)N[C@@H](CC(C)C)C(=O)N[C@@H](CC(C)C)C(=O)N[C@@H](C)C(=O)N[C@@H](CCC(N)=O)C(=O)N[C@@H](CCCCN)C(=O)N1CCC[C@H]1C(=O)N[C@@H](CCCCN)C(=O)N[C@@H](CCCCN)C(=O)N[C@@H](CC(C)C)C(=O)N[C@@H](CCCCN)C(=O)N1CCC[C@H]1C(=O)N[C@@H](CO)C(N)=O)C(C)C)[C@@H](C)CC` [Compound 0601GIP4822], the “Duration In The Rat IVGTT Assay” value in assay [1] is reported as <794@ −120 min. The inhibition at 0.01 µM in assay [2] (setting [5]) and in assay [2] (setting [6]) was 95.4% throughout. The “OGTT/GL (%)” value in assay [3] was −23, %.

In the case of `CC[C@H](C)[C@H](NC(=O)[C@H](CO)NC(=O)[C@H](Cc1ccc(O)cc1)NC(=O)[C@H](CC(=O)O)NC(=O)[C@H](CO)NC(=O)[C@@H](NC(=O)[C@H](Cc1ccccc1)NC(=O)[C@@H](NC(=O)CNC(=O)[C@H](CCC(=O)O)NC(=O)[C@@H](C)NC(=O)[C@@H](N)Cc1ccc(O)cc1)[C@@H](C)O)[C@@H](C)CC)C(=O)N[C@@H](C)C(=O)N[C@@H](CC(C)C)C(=O)N[C@@H](CC(=O)O)C(=O)N[C@@H](CCCCN)C(=O)N[C@H](C(=O)N[C@@H](CCCNC(=N)N)C(=O)N[C@@H](CCC(N)=O)C(=O)N[C@@H](CCC(N)=O)C(=O)N[C@@H](CCC(=O)O)C(=O)N[C@@H](Cc1ccccc1)C(=O)N[C@H](C(=O)N[C@@H](CC(N)=O)C(=O)N[C@@H](Cc1c[nH]c2ccccc12)C(=O)N[C@@H](CC(C)C)C(=O)N[C@@H](CC(C)C)C(=O)N[C@@H](C)C(=O)N[C@@H](CCC(N)=O)C(=O)N[C@@H](CCCCN)C(=O)N1CCC[C@H]1C(=O)N[C@@H](CCCCN)C(=O)N[C@@H](CCCCN)C(=O)N[C@H](C(=O)N[C@@H](CCCNC(=N)N)C(=O)N[C@@H](Cc1ccc(O)cc1)C(=O)N[C@@H](CO)C(N)=O)[C@@H](C)CC)C(C)C)[C@@H](C)CC` [0601GIP4539], the “Basal Glucose Lowering at Peptide Conc. of 80 nmol/kg” value in assay [4] is listed as −5%, AUC240. Further, the inhibition at 0.01 µM in assay [2] (setting [6]) was determined as 98.7%. The “OGTT/GL (%)” value in assay [3] is on record as −12, 30%.

Source of the values: patent US8497240B2 (priority 2006, dated 2013).
